The source of these data is paper PMC8580996, “2-Oxoglutarate derivatives can selectively enhance or inhibit the activity of human oxygenases” (Nature Communications, 2021).

SMILES strings stand for the structures.

Experiment [1] deals with T1, AspH (Homo sapiens, UniProt Q12797).
T1 construct: the tetratricopeptide repeat domain (His6-AspH315-758), was produced and purified as previously reported; made in house
T1 sequence (Q12797 315-758): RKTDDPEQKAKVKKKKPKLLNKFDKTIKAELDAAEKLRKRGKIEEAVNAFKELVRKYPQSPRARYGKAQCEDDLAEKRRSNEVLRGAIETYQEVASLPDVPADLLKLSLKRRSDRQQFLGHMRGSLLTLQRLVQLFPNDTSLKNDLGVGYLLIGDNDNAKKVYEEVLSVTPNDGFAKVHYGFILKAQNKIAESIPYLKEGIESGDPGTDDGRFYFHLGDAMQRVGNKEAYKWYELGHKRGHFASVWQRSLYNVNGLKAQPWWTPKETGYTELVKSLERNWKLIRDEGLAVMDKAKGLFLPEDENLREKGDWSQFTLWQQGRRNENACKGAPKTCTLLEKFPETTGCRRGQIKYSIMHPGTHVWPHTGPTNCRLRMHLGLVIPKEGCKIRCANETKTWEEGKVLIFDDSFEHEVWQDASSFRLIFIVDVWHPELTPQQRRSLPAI
Details: method as in PMID 34163896. The settings on record: hFX-CP101–119 substrate, 330 μM 2OG or 2OG derivative, t = 15 min; cited from earlier work.

Experiment [2] addresses T1, AspH. The experiment is described as follows: Competition assay in a single reaction vessel, AspH-catalyzed hydroxylation (SPE-MS). It counts as biochemical. How it is done:
Mean of three independent runs (n = 3; mean ± SD). […] Cosubstrates: a 20 μM 2OG; b 20 μM 2OG; c 20 μM 1; d 20 μM 12; e 20 μM 12 and 100 μM 2OG; f 100 μM 14. Source data are provided as a Source Data file.
Mean of three independent runs (n = 3; mean ± SD). […] Source data are provided as a Source Data file.
Peptide turnover was monitored by SPE-MS using the same instrument configuration (with the exception that the peptides were eluted from the SPE cartridge with 0.1%v/v aqueous formic acid in 80/20 v/v acetonitrile/water) as described above.
FIH and AspH-catalyzed peptide hydroxylations were analyzed simultaneously using SPE-MS as described in the
Methods section; competition experiments were performed in the same reaction vessel using equimolar 2OG
oxygenase and substrate concentrations. […]
Source data are provided as a Source Data file.
FIH and AspH-catalyzed peptide hydroxylations were analyzed simultaneously using SPE-
MS as described in the Methods section; competition experiments were performed in the same reaction vessel
using equimolar 2OG oxygenase and substrate concentrations. […]
2OG, 100 μM 14. Source data are provided as a Source Data file.

In the case of `O=C(O)C(=O)C1CCC(C(=O)O)C1` (centres unmarked) [compound 22, 3-(carboxycarbonyl)cyclopentane-1-carboxylic acid], the “AspH activity, %-substrate conversion” value on AspH [1] is approximately 15%. Take `O=C(O)C(=O)CC(CCCc1ccccc1)C(=O)O` (centres unmarked) [compound 18, 4-(3-phenylpropyl)-2OG]: the “AspH activity, %-substrate conversion” value on AspH [1] was less than 1%. As for `CCC(CC(=O)C(=O)O)C(=O)O` (centres unmarked) [compound 14, 4-ethyl-2OG], the “AspH activity, %-substrate conversion” value at AspH [1] is on record as less than 1%. The “AspH-catalyzed hydroxylation of hFX-EGFD1_86–124-4Ser” value at AspH [2] (Fig 2f, 100 μM 14, absence of 2OG) is on record as “not observed”. In addition, the AspH catalysis entry on AspH [2] (Supplementary Fig 27, tenfold excess of 14 over 100 μM 2OG) is “entirely suppressed”.
